In patent publication US20220306585A1, “PYRAZOLE DERIVATIVES FOR CONTROLLING ARTHROPODS” (Bayer Animal Health GmbH, priority 2019, published 2022):
Values after ≈ are worked out from the molar mass of the structure shown.

How the values were obtained:
[1] = Measurement of solubility in buffer at pH 6.5; type: physicochemical; conditions: aqueous buffer, kinetic from dmso stock; PBS buffer pH 6.5, shaken 24 h at rt, LC-MSMS; read-out: Solubility of example compounds at pH 6.5
Procedure: Measurement of Solubility in Buffer at pH 6.5 2-4 mg of the test compound are dissolved in DMSO to reach a concentration of 50 g/L (solution A). To 10 μL of this solution 960 μL PBS buffer pH 6.5 are added (final concentration: […]); the mixture is shaken for 24 h at rt in a 96 well plate. An aliquot is centrifuged at 42000 rpm für 30 min. The supernatant is diluted with acetonitrile/water (8:2) 1:10 and 1:1000 resp. This diluted samples are analyzed by LC-MSMS. Calibration: 10 μL of solution A are diluted with 823 μL DMSO (final concentration: 600 μg/mL), which is further diluted with acetonitrile/water 8:2 by a factor of 100 (provides solution B). The calibration curve is obtained from solution B by further diluting with acetonitrile/water 8:2 with target concentrations of 1.2-12-60-600 ng/mL and injecting these four solutions for MS measurement. PBS-Puffer: 6.18 g sodium chloride and 3.96 g sodium dihydrogen phosphate are dissolved in 1 L aqua dist., the pH is adjusted to 6.5 with IN sodium hydroxide.

[2] = Measurement of stability of prodrugs in buffer at pH 7.4; type: physicochemical; conditions: PBS buffer pH 7.4, 37° C., HPLC peak area, read-out: % Recovery after 24 h (stability at pH 7.4)
Procedure: Preparation of the PBS buffer solution pH 7.4: 90 g sodium chloride, 13.61 g potassium dihydrogen phosphate, 83.35 g 1M aqueous sodium hydroxide were dissolved in water. More water was added up to a total volume of 1 L. This solution was diluted 1:10 with water. Eventually, pH was adjusted to pH 7.4 by the addition of phosphoric acid.
Measurement of Stability of Prodrugs in Buffer at pH 7.4
0.15 mg of the test compound were dissolved in 0.1 mL dimethylsulfoxide and 0.4 mL acetonitrile. For complete dissolution, the HPLC vial with the sample solution was shaken and treated with ultrasound. Then, 1.0 mL of PBS buffer solution pH 7.4 was added and the sample was vortexed. The sample solution was analysed by HPLC (method 8) to determine the amount of the test compound at a particular time over a period of 24 h at 37° C. The peak areas, given as percentage of total area, are used for quantification. In addition, the reaction mixture was analysed by method 9 (HPLC-MS) at the final timepoint.

[3] = Degradation of prodrugs and release of parent drug in rat plasma; type: in vitro ADME; conditions: male, Hannover-Janvier RjHan, rat plasma (Li-heparin), 37° C., percent area of prodrug at t0
Procedure: Measurement of Release of Parent Drug in Rat Plasma 1 mg of the test compound was dissolved in 0.5 mL acetonitrile/dimethylsulfoxide 9:1. For complete dissolution the HPLC vial was shaken and treated with ultrasound. 20 μL of this solution were added to 1 mL of rat plasma (Li-heparin plasma, Hannover-Janvier rat, RjHan male) with vortexing at a temperature of 37° C. Aliquots (100 μL each) were taken at 0.17, 0.5, 1, 1.5, 2 and 4 hours. Each aliquot was transferred to a vial containing 300 μL of acetonitrile/citric acid buffer pH 3 8:2. These solutions were centrifuged at 5000 rpm for 10 minutes. The supernatant was analysed by HPLC (Method 8) to determine the amount of the test compound. In addition, the reaction mixture was analysed by method 9 (HPLC-MS) at the final timepoint. Both decrease of the prodrug concentration and increase of parent drug concentration were monitored. All data is given as percent area of the prodrug at to.

[4] = tested on: Ctenocephalides felis adult; assay: Antiparasitic activity after administration to rats: fleas; type: in vivo
Procedure: (§1) Measurement of the Antiparasitic Activity after Administration of a Prodrug to Rats Compounds were dissolved in the appropriate volume of glycerol formal (p.a.) just before application to the animals (dose volume was adjusted to 0.03 mL/kg bodyweight). 5 rats per group were either injected intraperitoneally or subcutaneously. Rats were infested with 30 Dermacentor variabilis nymphs on study days −2, 7, 14, 21, 28, 35 and 30 adult Ctenocephalides fleas on study days −1, 8, 15, 22, 29, 36. Parasite counts were performed on study days 2, 9, 16, 23, 30, 37. Percent efficacy was calculated as arithmetic mean parasite numbers as life attached tick numbers and live flea numbers of the respective study group in comparison to parasite counts on a placebo-treated control group. Infestation of groups with less than 75% efficacy on two consecutive counting occasions will terminated for the respective parasite.

[5] = tested on: Dermacentor variabilis nymph; assay: Antiparasitic activity after administration to rats: ticks; type: in vivo
Procedure: as §1

[6] = sc, versus parent drug also injected subcutaneously

Row | SMILES | solubility at 24 h [1] [µg/mL] | recovery at 24 h, 0.1 mg/mL [2] [%] | recovery at 0.17 h, 39 µg/mL [3] [%] | recovery at 0.5 h, 39 µg/mL [3] [%] | recovery at 1 h, 39 µg/mL [3] [%] | recovery at 1.5 h, 39 µg/mL [3] [%] | recovery at 2 h, 39 µg/mL [3] [%] | recovery at 4 h, 39 µg/mL [3] [%] | also measured
1 | Cn1nc(C(F)(F)C(F)(F)F)c(C(F)(F)F)c1-n1cc(-c2ccc(Cl)c(C(=O)N(COC(=O)C3CC3C(=O)O)C3(C#N)CC3)c2)cn1 (stereo not shown) [Example 1, 2-({[{2-Chloro-5-[2′-methyl-5′-(pentafluoroethyl)-4′-(trifluoromethyl)-2′H-[1,3′-bipyrazol]-4-yl]benzoyl}(1-cyanocyclopropyl)amino]methoxy}carbonyl)cyclopropane-1-carboxylic acid] | 331 (≈ 476 µM) | 100 | 93 | 88 | 80 | 74 | 66 | 49 | flea efficacy on rats compared with parent drug [4, 6]: superior; tick efficacy on rats compared with parent drug [5, 6]: superior
2 | Cn1nc(C(F)(F)C(F)(F)F)c(C(F)(F)F)c1-n1cc(-c2ccc(Cl)c(C(=O)N(COC(=O)CC(C)(C)C(=O)O)C3(C#N)CC3)c2)cn1 [Example 2, 4-{[{2-Chloro-5-[2′-methyl-5′-(pentafluoroethyl)-4′-(trifluoromethyl)-2′H-[1,3′-bipyrazol]-4-yl]benzoyl}(1-cyanocyclopropyl)amino]methoxy}-2,2-dimethyl-4-oxobutanoic acid] | 71 (≈ 99.9 µM) | 55 |  |  |  |  |  |  | 
3 | N#CC1(N(COC(=O)c2ccc(C(=O)O)cc2)C(=O)c2cc(-c3cnn(-c4c(Cl)cc(C(F)(C(F)(F)F)C(F)(F)F)cc4OC(F)(F)F)c3)ccc2Cl)CC1 [Example 3, 4-({[(2-Chloro-5-{1-[2-chloro-4-(1,1,1,2,3,3,3-heptafluoropropan-2-yl)-6-(trifluoromethoxy)phenyl]-1H-pyrazol-4-yl}benzoyl)(1-cyanocyclopropyl)amino]methoxy}carbonyl)benzoic acid] | 3 (≈ 3.63 µM) | 99 | 100 | 100 | 100 | 100 | 100 | 100 | In-vivo Efficacy SD2 ([4]; 12.74 mg/kg sc, Ctenocephalides felis adult, study day 2): 100%; In-vivo Efficacy SD9 ([4]; 12.74 mg/kg sc, Ctenocephalides felis adult, study day 9): 100%; In-vivo Efficacy SD16 ([4]; 12.74 mg/kg sc, Ctenocephalides felis adult, study day 16): 100%; In-vivo Efficacy SD23 ([4]; 12.74 mg/kg sc, Ctenocephalides felis adult, study day 23): 96%; In-vivo Efficacy SD30 ([4]; 12.74 mg/kg sc, Ctenocephalides felis adult, study day 30): 80%; In-vivo Efficacy SD37 ([4]; 12.74 mg/kg sc, Ctenocephalides felis adult, study day 37): 55%; In-vivo Efficacy SD2 ([5]; 12.74 mg/kg sc, Dermacentor variabilis nymph, study day 2): 99%; In-vivo Efficacy SD9 ([5]; 12.74 mg/kg sc, Dermacentor variabilis nymph, study day 9): 98%; In-vivo Efficacy SD16 ([5]; 12.74 mg/kg sc, Dermacentor variabilis nymph, study day 16): 93%; In-vivo Efficacy SD23 ([5]; 12.74 mg/kg sc, Dermacentor variabilis nymph, study day 23): 96%; In-vivo Efficacy SD30 ([5]; 12.74 mg/kg sc, Dermacentor variabilis nymph, study day 30): 85%; In-vivo Efficacy SD37 ([5]; 12.74 mg/kg sc, Dermacentor variabilis nymph, study day 37): 48%
4 | Cn1nc(C(F)(F)C(F)(F)F)c(C(F)(F)F)c1-n1cc(-c2ccc(Cl)c(C(=O)N(COC(=O)C3(C(=O)O)CC3)C3(C#N)CC3)c2)cn1 [Example 5, 1-({[{2-Chloro-5-[2′-methyl-5′-(pentafluoroethyl)-4′-(trifluoromethyl)-2′H-[1,3′-bipyrazol]-4-yl]benzoyl}(1-cyanocyclopropyl)amino]methoxy}carbonyl)cyclopropane-1-carboxylic acid] | 171 (≈ 246 µM) | 71 |  |  |  |  |  |  | 
5 | Cn1nc(C(F)(F)C(F)(F)F)c(C(F)(F)F)c1-n1cc(-c2ccc(Cl)c(C(=O)N(COC(=O)CCC(=O)O)C3(C#N)CC3)c2)cn1 [Example 6, 4-{[{2-Chloro-5-[2′-methyl-5′-(pentafluoroethyl)-4′-(trifluoromethyl)-2′H-[1,3′-bipyrazol]-4-yl]benzoyl}(1-cyanocyclopropyl)amino]methoxy}-4-oxobutanoic acid] | 200 (≈ 293 µM) | 90 |  |  |  |  |  |  | 
6 | Cn1nc(C(F)(F)C(F)(F)F)c(C(F)(F)F)c1-n1cc(-c2ccc(Cl)c(C(=O)N(COC(=O)/C=C/C(=O)O)C3(C#N)CC3)c2)cn1 [Example 7, (2E)-4-{[{2-Chloro-5-[2′-methyl-5′-(pentafluoroethyl)-4′-(trifluoromethyl)-2′H-[1,3′-bipyrazol]-4-yl]benzoyl}(1-cyanocyclopropyl)amino]methoxy}-4-oxobut-2-enoic acid] |  | 96 | 84 | 58 | 26 | 10 | 4 | 0 | 
7 | Cn1nc(C(F)(F)C(F)(F)F)c(C(F)(F)F)c1-n1cc(-c2ccc(Cl)c(C(=O)N(COC(=O)c3ccc(C(=O)O)cc3)C3(C#N)CC3)c2)cn1 [Example 10, 4-({[{2-Chloro-5-[2′-methyl-5′-(pentafluoroethyl)-4′-(trifluoromethyl)-2′H-[1,3′-bipyrazol]-4-yl]benzoyl}(1-cyanocyclopropyl)amino]methoxy}carbonyl)benzoic acid] | 31 (≈ 42.4 µM) | 100 | 99 | 98 | 96 | 94 | 92 | 85 | 
8 | Cn1nc(C(F)(F)C(F)(F)F)c(C(F)(F)F)c1-n1cc(-c2ccc(Cl)c(C(=O)N(COC(=O)[C@H]3CC[C@H](C(=O)O)CC3)C3(C#N)CC3)c2)cn1 [Example 12, (trans)-4-({[{2-Chloro-5-[2′-methyl-5′-(pentafluoroethyl)-4′-(trifluoromethyl)-2′H-[1,3′-bipyrazol]-4-yl]benzoyl}(1-cyanocyclopropyl)amino]methoxy}carbonyl)cyclohexane-1-carboxylic acid] | 46 (≈ 62.4 µM) | 100 | 91 | 70 | 49 | 33 | 22 | 0 | 
9 | CC(C)(CC(=O)OCN(C(=O)c1cc(-c2cnn(-c3c(Cl)cc(C(F)(C(F)(F)F)C(F)(F)F)cc3OC(F)(F)F)c2)ccc1Cl)C1(C#N)CC1)C(=O)O [Example 14, 4-{[(2-Chloro-5-{1-[2-chloro-4-(1,1,1,2,3,3,3-heptafluoropropan-2-yl)-6-(trifluoromethoxy)phenyl]-1H-pyrazol-4-yl}benzoyl)(1-cyanocyclopropyl)amino]methoxy}-2,2-dimethyl-4-oxobutanoic acid] | 5 (≈ 6.19 µM) | 63 |  |  |  |  |  |  | 
